From patent US5194645A, “Trans-Pt (IV) compounds” (Johnson Matthey Public Limited Company, priority 1991, dated 1993)

Key:
Adj/PC6/tetraplatin res = assay: In vivo Adj/PC6 tetraplatin-resistant tumour test in mice; set-up: key to ED90: --: indicates 90% inhibition not achieved for doses up to LD50
Description: (§1) The animals were sacrificed when moribund. The compounds were administered parenterally (ip).

L1210 = assay: In vivo L1210 leukemia, increase in life span; conditions: 9 mg/kg, ip, days 1, 5 and 9, DBA/2 mice
Description: as §1
(§2) The compound of Example 2 was tested against L1210 leukemia, and also against a strain of L1210 resistant to cisplatin, in mice, and the increase in life span (ILS) determined against control mice not being administered any active compound, according to the equation, [formula] where T=days survival of treated mice and
(§3) C=days survival of control mice

PXN/94 = assay: In vitro cytotoxicity (SRB), PXN/94; type: cell-based, human; conditions: PXN/94, ovarian cancer, 48 to 96 hours
Description: (§4) Additional in vitro biological testing was conducted using cell lines derived from human carcinomas and maintained at the Institute of Cancer Research, Sutton, England (see C A Hills & colleagues, Br J Cancer 59, 527-34 (1989)). Monolayer cells were trypsinized and seeded in 96-well microtiter plates at a density of 1×10^4 cells/well in 200 μl of growth medium. Cells were incubated overnight and test compounds were added to triplicate wells at various concentrations for a total of 48 to 96 hours. For toxicity analysis after drug exposure, the cells were fixed with trichloroacetic acid and stained for cellular protein content by incubation for 30 minutes with 0.4% (wt/vol) sulforodamine B (SRB) dissolved in 1% acetic acid. The unbound dye was removed by 1% acetic acid washes, and the bound dye was extracted with 10 mM Tris buffer. The amount of dye in solution was quantified by absorbance at 564 nm.
(§5) In the Tables A and B below, all the cells are ovarian cancer cells with the exception of GCT27^R /GCT27 which are testicular. Table A gives IC50 values in μM; Table B gives Resistance Factors as a ratio of IC50 for a cell line bred to be resistant to cisplatin against IC50 for the nonresistant cell line.

CHI ® = assay: In vitro cytotoxicity (SRB), CHI ®; type: cell-based, human; conditions: CHI ® (cisplatin resistant), ovarian cancer, 48 to 96 hours
Description: as §4, §5

41M = assay: In vitro cytotoxicity (SRB), 41M; type: cell-based, human; conditions: ovarian cancer, 48 to 96 hours
Description: as §4, §5

SKOV-3 = assay: In vitro cytotoxicity (SRB), SKOV-3; type: cell-based, human; conditions: SKOV-3, ovarian cancer, 48 to 96 hours
Description: as §4, §5

Adj/PC6/iproplatin res = assay: In vivo Adj/PC6 iproplatin-resistant tumour test in mice
Description: as §1

Adj/PC6/cisplatin res = assay: In vivo Adj/PC6 cisplatin-resistant tumour test in mice
Description: as §1

Adj/PC6 = assay: In vivo Adj/PC6 tumour test in mice (LD50, ED90, therapeutic index)
Description: The Adj/PC6 testing was carried out as described by P M Goddard et al presented in Sixth NCI-EORTC Symposium on New Drugs in Cancer Therapy 1989, which is a development of the basic method described by T A Connors et al, Chem Biol Interact 5, 415(1972). The in vivo L1210 tests were conducted according to the NCI protocol, Cancer Chemotherapy Reports, Part 3, vol 2, (Sept 1972) except that the animals used were DBA/2 mice and that dosing was carried out on days 1, 5 and 9. The animals were sacrificed when moribund. The compounds were administered parenterally (ip).
In the Adj/PC6 testing, LD50 and ED90 values in mg/kg body weight were determined in the conventional manner. The therapeutic index (TI) was calculated as the ratio of LD50 to ED90, and the results are shown below.
Additional tests were carried out in vivo using the compound of Example 2, against sensitive Adj/PC6 tumour cell lines, and against tumour cell lines resistant to various platinum anti-tumour agents, and a TI (Therapeutic Index) calculated, as described above.

GCT27 ®/GCT27 = assay: Resistance factor GCT27 ®/GCT27; type: cell-based, human; conditions: ratio of IC50 resistant to nonresistant line, testicular
Description: as §4, §5

A2780 ®/A2780 = assay: Resistance factor A2780 ®/A2780; type: cell-based, human; conditions: ratio of IC50 resistant to nonresistant line, ovarian
Description: as §4, §5

OVCAR-3 [1] = assay: In vivo OVCAR-3 ovarian carcinoma xenograft; set-up: species or system mice; conditions: for Growth Delay: delay in doubling of tumour volume vs control
Description: The "growth delay" was also measured which represents the delay in achieving a doubling of the tumour volume for the treated group compared to the control group.

HX62 = assay: In vitro cytotoxicity (SRB), HX62; type: cell-based, human; conditions: HX62, ovarian cancer, 48 to 96 hours
Description: as §4, §5

Resistant L1210 = assay: In vivo cisplatin-resistant L1210 leukemia, increase in life span; conditions: 9 mg/kg, ip, days 1, 5 and 9, DBA/2 mice, L1210 resistant to cisplatin
Description: as §1, §2, §3

CHI = assay: In vitro cytotoxicity (SRB), CHI; type: cell-based, human; conditions: ovarian cancer, 48 to 96 hours
Description: as §4, §5

OVCAR-3 [2] = assay: In vivo OVCAR-3 ovarian carcinoma xenograft; set-up: species or system mice; conditions: tumour volume vs control
41M ® = assay: In vitro cytotoxicity (SRB), 41M ®; type: cell-based, human; conditions: 41M ® (cisplatin resistant), ovarian cancer, 48 to 96 hours
Description: as §4, §5

41M ®/41M = assay: Resistance factor 41M ®/41M; type: cell-based, human; conditions: ratio of IC50 resistant to nonresistant line, ovarian
Description: as §4, §5

CHI ®/CHI = assay: Resistance factor CHI ®/CHI; type: cell-based, human; conditions: ratio of IC50 resistant to nonresistant line, ovarian
Description: as §4, §5

[3] = Adj/PC6, comparison with cis-isomer

## [NH2][Pt]([OH])([OH])([Cl])([Cl])[NH]C1CCCCC1 [EX 2, trans-[PtCl2 (OH)2 (NH3)(c-C6H11 NH2)]]
Adj/PC6/tetraplatin res
  ED90: --
  LD50: 8.8 mg/kg
L1210
  ILS (increase in life span): 77%
PXN/94
  IC50: 3.7 µM
CHI ®
  IC50: 2.2 µM
41M
  IC50: 1.5 µM
SKOV-3
  IC50: 8.8 µM
Adj/PC6/iproplatin res
  ED90: 2.6 mg/kg
  LD50: 8.8 mg/kg
  TI (Therapeutic Index): 3.4
Adj/PC6/cisplatin res
  ED90: 5.6 mg/kg
  LD50: 10.5 mg/kg
  TI (Therapeutic Index): 1.88
Adj/PC6; [3]
  ED90: 0.76 mg/kg
  TI (Therapeutic Index): 11.6
Adj/PC6; Adj/PC6 testing, mice, ip
  ED90: 0.76 mg/kg body weight
  LD50: 8.8 mg/kg body weight
  TI (therapeutic index, ratio of LD50 to ED90): 11.6
Adj/PC6; sensitive and platinum-resistant Adj/PC6 tumours
  activity compared with the cis isomer: possesses activity, and a different spectrum of activity to the cis isomer
GCT27 ®/GCT27
  Resistance Factor GCT27 ®/GCT27: 1.8
A2780 ®/A2780
  Resistance Factor A2780 ®/A2780: 7.1
OVCAR-3 [1]; 1 mg/kg
  Growth Delay: 0.9 days
OVCAR-3 [1]; 2 mg/kg
  Growth Delay: 12.0 days
OVCAR-3 [1]; 4 mg/kg
  Growth Delay: 16.8 days
OVCAR-3 [1]; increasing doses
  dose-related effect (OVCAR-3 xenograft): clear dose-related effect
HX62
  IC50: 5.9 µM
Resistant L1210
  ILS (increase in life span): 39%
CHI
  IC50: 1.4 µM
OVCAR-3 [2]; 1 mg/kg
  T/C (day 28): 0.80
OVCAR-3 [2]; 2 mg/kg
  T/C (day 28): 0.64
OVCAR-3 [2]; 4 mg/kg
  T/C (day 28): 0.48
41M ®
  IC50: 1.8 µM
41M ®/41M
  Resistance Factor 41M ®/41M: 1.2
CHI ®/CHI
  Resistance Factor CHI ®/CHI: 1.6
